In US10221163B2 (priority 2015, dated 2019):
Where a name gives a salt, the structure may show the parent alone. Read-outs that look alike come from different tables or passages of the source.

Assays:
VIM-1 = VIM-1 (Pseudomonas aeruginosa (strain ATCC 15692 / DSM 22644 / CIP 104116 / JCM 14847 / LMG 12228 / 1C / PRS 101 / PAO1), UniProt A0A0F7KYQ8); test: biochemical; conditions: CCF2-FA substrate, 30 pM enzyme, 2 hours at 25° C.
Summary of the method: (§1)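 IC50 values derive from 4-parameter fits of percent inhibition against inhibitor concentration on semi-log axes. Activity was monitored by fluorescence with the CCF2-FA substrate after a 2-hour, 25° C incubation of compound, enzyme and substrate.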

[1] = system: Pseudomonas aeruginosa MB9798 vs MB9799
Summary of the method: (§2)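 PAO1 pair, broth microdilution; fixed β-lactam (imipenem/ceftazidime) at ~CLSI breakpoint + fixed class A/C BLI for AmpC; serial MBLi titration; endpoint = MBLi conc. restoring susceptibility; MB9798:MB9799 ratio = efflux liability.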

[2] = system: Pseudomonas aeruginosa efflux− (MB9799), IMP-1; format: cell-based; conditions: C, D serine β-lactamase inhibitor closely related to relebactam; for P. aeruginosa expressing IMP-1, efflux − (MB9799) MITC95: concentration restoring susceptibility to imipenem at 2 μg/mL in the presence of a class A; for Concentration of metallo-β-lactamase inhibitor which restores susceptibility of efflux − (MB9799) strain to imipenem: imipenem at 2 μg/mL, in the presence of a class A
Summary of the method: as §2

[3] = system: Klebsiella pneumoniae expressing VIM-1 (IHMA599644); format: cell-based; conditions: for Klebsiella pneumoniae MITC95: VIM-1 strain IHMA599644, with imipenem 1 μg/ml; for Klebsiella pneumoniae expressing VIM-1 (IHMA599644) MITC95: with imipenem 1 μg/ml
Summary of the method: (§3)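 Clinical strains grown overnight on blood agar at 35°C, colonies suspended in saline, diluted 1:100 into 1.1×CAMHB. Test compound titrated with imipenem at 1 μg/ml; incubated 22–24 h at 35°C, growth read by absorbance.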

[4] = system: Escherichia coli expressing NDM-1 (CLB30005, CLB30016); format: cell-based; conditions: with imipenem 1 μg/ml; for Escherichia coli MITC95: NDM-1 strain
Summary of the method: as §3

[5] = system: Serratia marcescens expressing IMP-1 (CL5741); format: cell-based; conditions: for Serratia marcescens MITC95: IMP-1 strain CL5741, with imipenem 1 μg/ml; for Serratia marcescens expressing IMP-1 (CL5741) MITC95: with imipenem 1 μg/ml
Summary of the method: as §3

[6] = system: Pseudomonas aeruginosa efflux+ (MB9798), IMP-1; format: cell-based; parameters: Concentration of metallo-β-lactamase inhibitor which restores susceptibility of efflux + (MB9798) strain to imipenem: unit not given here; conditions: C, D serine β-lactamase inhibitor closely related to relebactam; for P. aeruginosa expressing IMP-1, efflux + (MB9798) MITC95: concentration restoring susceptibility to imipenem at 2 μg/mL in the presence of a class A; for Concentration of metallo-β-lactamase inhibitor which restores susceptibility of efflux + (MB9798) strain to imipenem: imipenem at 2 μg/mL, in the presence of a class A
Summary of the method: as §2

IMP-1 = IMP-1 (Serratia marcescens, UniProt P52699); test: biochemical; format: biochemical; conditions: CCF2-FA substrate, 2 pM enzyme, 2 hours at 25° C.
Chain of IMP-1 (P52699 whole entry, looked up, species assumed): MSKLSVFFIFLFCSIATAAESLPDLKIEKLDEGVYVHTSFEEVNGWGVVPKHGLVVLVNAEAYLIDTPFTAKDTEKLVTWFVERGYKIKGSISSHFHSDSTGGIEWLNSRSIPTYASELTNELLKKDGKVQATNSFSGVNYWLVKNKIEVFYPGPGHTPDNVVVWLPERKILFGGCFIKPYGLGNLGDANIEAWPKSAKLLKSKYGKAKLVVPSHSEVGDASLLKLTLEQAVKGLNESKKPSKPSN
Summary of the method: as §1

NDM-1 = NDM-1 (Klebsiella pneumoniae, UniProt C7C422); test: biochemical; format: biochemical; conditions: fluorescence assay, CCF2-FA substrate, 1 pM enzyme, 2 hours at 25° C., read-out: NDM-1 IC50
Chain of NDM-1 (C7C422 whole entry, looked up, species assumed): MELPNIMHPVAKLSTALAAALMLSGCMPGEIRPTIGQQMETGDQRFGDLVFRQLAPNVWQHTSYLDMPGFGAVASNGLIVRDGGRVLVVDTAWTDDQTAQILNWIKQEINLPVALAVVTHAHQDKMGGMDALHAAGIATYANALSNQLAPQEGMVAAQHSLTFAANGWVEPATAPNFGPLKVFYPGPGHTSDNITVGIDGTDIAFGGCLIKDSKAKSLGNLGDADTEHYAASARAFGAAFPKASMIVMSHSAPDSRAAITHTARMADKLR
Summary of the method: as §1

[7] = ratio MITC95 PA_9798/MITC95 PA_9799
[8] = fluorescence assay, read-out: IMP-1 IC50
[9] = fluorescence assay, read-out: VIM-1 IC50
[10] = 95% inhibition of bacterial growth

| Compound | IC50 (VIM-1; VIM-1 IC50, fluorescence assay) [nM] | Efflux ratio [1, 7] | P. aeruginosa expressing IMP-1, efflux − (MB9799) MITC95 [2] [µM] | Klebsiella pneumoniae MITC95 ([3]; 95% inhibition of growth) [µM] | Escherichia coli MITC95 ([4]; 95% inhibition of growth) [µM] | Serratia marcescens MITC95 ([5]; 95% inhibition of growth) [µM] | P. aeruginosa expressing IMP-1, efflux + (MB9798) MITC95 [6] [µM] | IC50 (IMP-1; [8]) [nM] | IC50 (NDM-1) [nM] | IC50 (VIM-1; [9]) [nM] | Klebsiella pneumoniae expressing VIM-1 (IHMA599644) MITC95 [3, 10] [µM] | Escherichia coli expressing NDM-1 (CLB30016) MITC95 [4, 10] [µM] | Serratia marcescens expressing IMP-1 (CL5741) MITC95 [5, 10] [µM] | other results |
| --- | --- | --- | --- | --- | --- | --- | --- | --- | --- | --- | --- | --- | --- | --- |
| NCCNS(=O)(=O)c1ccc(-c2cccc(SC[C@H](O)CN)c2)c(-c2nn[nH]n2)c1S(N)(=O)=O [Example 356, (R)-3′-((3-amino-2-hydroxypropyl)thio)-N4-(2-aminoethyl)-2-(2H-tetrazol-5-yl)-[1,1′-biphenyl]-3,4-disulfonamide] | 0.244 | 2.00 | 0.3906 | 0.7813 | 0.7813 | 0.7813 | 0.7813 | 1.41 | 1.82 |  |  |  |  |  |
| CC[C@H](CN)NS(=O)(=O)c1ccc(-c2cccc3[nH]c(N)nc23)c(-c2nn[nH]n2)c1S(N)(=O)=O [Example 265, (R)-4-(2-amino-1H-benzo[d]imidazol-4-yl)-N1-(1-aminobutan-2-yl)-3-(2H-tetrazol-5-yl)benzene-1,2-disulfonamide] |  | 1.00 | 0.7813 | 1.563 | 1.563 | 0.7813 | 0.7813 | 0.292 | 0.0241 | 0.0927 |  |  |  |  |
| NCCNC(=O)c1cccc(-c2ccc(S(=O)(=O)NCCN)c(S(N)(=O)=O)c2-c2nn[nH]n2)c1N [Example 204, 2-amino-N-(2-aminoethyl)-4′-(N-(2-aminoethyl)sulfamoyl)-5′-sulfamoyl-6′-(2H-tetrazol-5-yl)biphenyl-3-carboxamide] |  | 1.00 | 0.7813 |  |  |  | 0.7813 | 2.56 | 0.52 | 0.226 | 1.563 | 1.563 | 1.563 |  |
| NC[C@@]1(NS(=O)(=O)c2ccc(-c3ccc(N)nc3)c(-c3nn[nH]n3)c2S(N)(=O)=O)CCNC1 [Example 487, (S)-N1-(3-(aminomethyl)pyrrolidin-3-yl)-4-(6-aminopyridin-3-yl)-3-(2H-tetrazol-5-yl)benzene-1,2-disulfonamide dihydrochloride] | 0.527 |  |  | 1.563 |  | 0.7813 |  |  |  |  |  |  |  | Efflux ratio ([1]; fold difference between efflux+ (MB9798) and efflux− (MB9799) strains, imipenem at 2 μg/mL, dihydrochloride): 1.00; Concentration of metallo-β-lactamase inhibitor which restores susceptibility of efflux − (MB9799) strain to imipenem ([2]; dihydrochloride): 1.563; Escherichia coli MITC95 ([4]; 95% inhibition of growth, dihydrochloride): 0.3906 µM; Concentration of metallo-β-lactamase inhibitor which restores susceptibility of efflux + (MB9798) strain to imipenem [6]: 1.563; IC50 (IMP-1; fluorescence assay, dihydrochloride, read-out: IMP-1 IC50): 0.803 nM; IC50 (NDM-1; dihydrochloride): 0.274 nM |
| NC[C@H]1CCN(S(=O)(=O)c2ccc(-c3cccc4sc(N)nc34)c(-c3nnn[nH]3)c2S(N)(=O)=O)C1 [Example 74, 3-(2-amino-1,3-benzothiazol-4-yl)-6-{[(3R)-3-(aminomethyl)pyrrolidin-1-yl]sulfonyl}-2-(1H-tetrazol-5-yl)benzenesulfonamide] | 1.14 | 1.00 | 1.172 |  |  |  | 1.172 |  | 0.646 |  | 3.125 | 2.344 | 2.344 | IC50 (IMP-1; IMP-1 IC50, fluorescence assay): 0.84 nM |
| CNc1nc2c(-c3ccc(S(=O)(=O)N[C@H]4CCNC4)c(S(N)(=O)=O)c3-c3nn[nH]n3)cccc2[nH]1 [Example 295, (S)-4-(2-(methylamino)-1H-benzo[d]imidazol-4-yl)-N1-(pyrrolidin-3-yl)-3-(2H-tetrazol-5-yl)benzene-1,2-disulfonamide] |  | 1.00 | 0.7813 | 1.563 | 0.7813 | 0.7813 | 0.7813 | 0.775 | 0.0561 | 0.172 |  |  |  |  |
| NS(=O)(=O)c1c(S(=O)(=O)N2CCNCC2)ccc(-c2cccc3cn[nH]c23)c1-c1nnn[nH]1 [Example 160, 3-(1H-indazol-7-yl)-6-(piperazin-1-ylsulfonyl)-2-(1H-tetrazol-5-yl)benzenesulfonamide] |  | 4.00 | 1.563 |  |  |  | 6.25 | 1.39 | 0.599 | 1.07 | 3.125 | 3.125 | 1.563 |  |
| C[C@H](CCN)NS(=O)(=O)c1ccc(-c2ccc(N)nc2)c(-c2nn[nH]n2)c1S(N)(=O)=O [Example 498, (R)-N1-(4-aminobutan-2-yl)-4-(6-aminopyridin-3-yl)-3-(1H-tetrazol-5-yl)benzene-1,2-disulfonamide] |  |  |  |  |  |  |  | 0.0763 | 0.0146 | 0.0512 |  |  |  | Efflux ratio ([1]; fold difference between efflux+ (MB9798) and efflux− (MB9799) strains, imipenem at 2 μg/mL): 1.00; Concentration of metallo-β-lactamase inhibitor which restores susceptibility of efflux − (MB9799) strain to imipenem [2]: 0.7813; Klebsiella pneumoniae MITC95 [3, 10]: 3.125 µM; Escherichia coli MITC95 [4, 10]: 1.563 µM; Serratia marcescens MITC95 [5, 10]: 1.563 µM; Concentration of metallo-β-lactamase inhibitor which restores susceptibility of efflux + (MB9798) strain to imipenem [6]: 0.7813 |
| CN1CCN(S(=O)(=O)c2ccc(-c3cccc4sc(N)nc34)c(-c3nnn[nH]3)c2S(N)(=O)=O)CC1 [Example 27, 3-(2-amino-1,3-benzothiazol-4-yl)-6-[(4-methylpiperazin-1-yl)sulfonyl]-2-(1H-tetrazol-5-yl)benzenesulfonamide] |  | 2.00 | 6.25 |  |  |  | 12.5 | 1.59 | 0.825 | 1.92 | 25 | 12.5 | 6.25 |  |
